Experimental data published in publication PMC5556108, “In vivo evaluation of radiotracers targeting the melanin-concentrating hormone receptor 1: [^11C]SNAP-7941 and [^18F]FE@SNAP reveal specific uptake in the ventricular system” (Scientific Reports, 2017).
Where a name gives a salt, the structure may show the parent alone. Read-outs that look alike come from different tables or passages of the source.

What was measured:
hMCHR1 = target: T1, hMCHR1 (Homo sapiens, UniProt Q99705); experiment: Competitive binding studies: displacement of specific [125I]MCH binding on CHO-K1 cell membranes; conditions: for binding cooperativity (from Hill slope factor) / Hill slope factor: displacement of [125I]MCH; for binding cooperativity (from Hill slope factor): CHO-K1 cell membranes expressing hMCHR1
T1 construct: purchased PerkinElmer, Inc., Waltham, USA; host or cells: CHO-K1 cell membranes
Procedure: Competitive binding studies were conducted on CHO-K1 cell membranes expressing the hMCHR1 (PerkinElmer, Inc., Waltham, USA). Briefly, cell membranes (10 µg/mL) were dissolved in 500 µL 50 mM Tris buffer (pH 7.4) (containing 10 mM MgCl2, 2 mM EDTA, 0.1% bacitracin and 0.2% BSA). […] All non-labelled compounds were initially dissolved in DMSO and diluted with deionized water to the final concentration, where the amount of DMSO never exceeded 5%. The membranes were incubated in vials at room temperature for 120 min. Subsequently, bound and free fractions of radioligand were separated by centrifugation at 40 000 × g for 20 min. The supernatants were removed into new vials and pellets were washed twice with 800 µL ice cold Tris buffer. The pellets were finally dissolved in 1300 µL Tris buffer and the radioactivity of both, the supernatant and the pellet, was measured in a Gamma Counter (2480 WIZARD[2], PerkinElmer, Waltham, MA, USA). The half-maximum inhibitory concentration (IC50) was determined using GraphPad Prism 6.0 (GraphPad Software, Inc., San Diego, CA, USA) and converted into the Ki using the Cheng Prusoff equation[38].

MCHR1 [1] = target: T2, MCHR1 (Rattus norvegicus, UniProt P97639); experiment: Ex-vivo brain uptake measured in the Gamma Counter; conditions: mean ± SEM
T2 construct: Small-animal PET/MRI brain scans in healthy rats evinced high radiotracer uptake in the entire ventricular system; from tissue; host or cells: brain (whole brain, ventricular system) of male Sprague-Dawley rats, in vivo / ex vivo
Procedure: (§1) Anaesthetized rats were immobilized in a multimodal animal carrier unit (MACU; medres® – medical research GmbH, Cologne, Germany) and maintained at a body temperature of 37 °C throughout the whole experiment. Animals received either [^11C]SNAP-7941 or [^18F]FE@SNAP, followed by an injection of (±)-SNAP-7941 (15 mg/kg body weight, freshly dissolved in 400 µL; displacement condition; n = 3) or 400 µL of the respective solvent (vehicle condition; n = 3). The MCHR1 antagonists and the vehicle were administered either 15 min ([^11C]SNAP-7941) or 20 min ([^18F]FE@SNAP) after radiotracer injection as a bolus via the lateral tail vein. A stereotactic holder attached to the MACU was used to fix the head of the animals in a reliable and reproducible position within the whole imaging study. Experiments were initiated with a 7 minute cone beam attenuation CT (CBCT) of the brain (360 projections; binning 4 × 4; 80 kV; 500 µA; 200 ms exposure time) using a small-animal CT scanner (Siemens Inveon microSPECT/CT, Siemens Medical Solutions, Knoxville, USA). Subsequently the animals were positioned in the imaging chamber of a Siemens Inveon microPET scanner (Siemens Medical Solution, Knoxville, USA). [^11C]SNAP-7941 (75.85 ± 5.80 MBq; molar activity: 33.12 ± 25.73 GBq/µmol; radiochemical purity: >99%) or [^18F]FE@SNAP (44.12 ± 4.41 MBq; molar activity: 22.18 ± 9.72 GBq/µmol; radiochemical purity: >90%) was injected (200–800 µL) via the lateral tail vein and dynamic PET imaging was performed 45 min for the [^11C]-labeled radiotracer and 60 min for the [^18F]-labeled ligand. Immediately afterwards, T1-weighted high-resolution axial, coronary and sagittal brain MRI scans (2D FLASH; echo time: 3.85 ms; repetition time: 282 ms; flip angle: 30°; field of view: 35 × 35 mm; resolution: 68 × 68 µm; slice thickness: 0.4 mm) were performed using a Bruker BioSpec 94/30 USR small-animal MR system (Bruker BioSpin GmbH, Karlsruhe, Germany). At the end of the imaging study animals were sacrificed under anesthesia through an intravenous injection of pentobarbital sodium (Release® 300 mg/mL, WDT, Garbsen, Germany), brains were removed, weighed and subjected to radioactivity measurements in a Gamma Counter (2480 WIZARD[2], PerkinElmer, Waltham, MA, USA). Values were normalized to weight and dose and expressed as the percentage injected dose per gram of tissue (%ID/g).

[2] = tested on: P-glycoprotein (P-gp) and Breast Cancer Resistance Protein (BCRP); set-up: method as in PMID 23829932; conditions: due to binding to P-gp and BCRP; cited from earlier work
MCHR1 [3] = target: T2, MCHR1; experiment: Small-animal PET/CT/MRI brain imaging, radiotracer uptake (SUV) under baseline and displacement conditions; format: in vivo
Procedure: Twelve-weeks old male Sprague-Dawley rats (HIM:OFA, Himberg, Austria) weighing 389 ± 86 g were kept under controlled environmental conditions (22 ± 1 °C; 40–70% humidity; 12 hours light/dark cycle) with free access to water and standard laboratory animal diet (sniff R/M-H, sniff Spezialdiaeten GmbH, Soest, Germany). Prior to each experiment, the animals were placed into an induction chamber and anesthetized with 2.5% isoflurane. When unconscious, the animals were taken from the chamber and kept under anesthesia with 1.5–2.5% isoflurane provided via a mask during the whole experiment. Physiological parameters and the depth of anesthesia were monitored continuously. Administration of radioligands and MCHR1 antagonists were performed intravenously via the lateral tail vein. All procedures and protocols using animals have been approved by the Institutional Animal Care and Use Committee of the Medical University of Vienna, Austria, as well as by the Austrian Ministry of Science, Research and Economy (BMWFW-66.009/0029-WF/V/3b/2015). Every effort was made to minimize both, the suffering and the number of animals. All experimental procedures and protocols used in this study were performed in accordance with the relevant guidelines and regulations.
as §1
CT raw data was reconstructed with a Feldkamp algorithm using a Shepp-Logan filter followed by standard rat beam-hardening correction and noise reduction (matrix size: 1024 × 1024; effective pixel size: 97.56 µm). […]

[4] = set-up: method as in PMID 24106662; conditions: cited from earlier work
[5] = displacement of 0.1 nM [125I]MCH, CHO-K1 cell membranes expressing hMCHR1, Cheng Prusoff, mean ± SEM
[6] = displacement of 0.1 nM [125I]MCH, CHO-K1 cell membranes expressing hMCHR1, mean ± SEM, three independent experiments
[7] = CHO-K1 cell membranes expressing hMCHR1, mean ± SEM
[8] = group with displacement via (±)-SNAP-7941 (15 mg/kg)
[9] = i.v. tracer, before displacement, group displaced with 15 mg/kg (±)-SNAP-7941, mean ± SEM
[10] = i.v. tracer, before displacement, group displaced with vehicle, mean ± SEM
[11] = male, Sprague-Dawley, in vivo, iv
[12] = male, Sprague-Dawley, in vivo, iv, 15 mg/kg

T1 sequence (Q99705 whole entry): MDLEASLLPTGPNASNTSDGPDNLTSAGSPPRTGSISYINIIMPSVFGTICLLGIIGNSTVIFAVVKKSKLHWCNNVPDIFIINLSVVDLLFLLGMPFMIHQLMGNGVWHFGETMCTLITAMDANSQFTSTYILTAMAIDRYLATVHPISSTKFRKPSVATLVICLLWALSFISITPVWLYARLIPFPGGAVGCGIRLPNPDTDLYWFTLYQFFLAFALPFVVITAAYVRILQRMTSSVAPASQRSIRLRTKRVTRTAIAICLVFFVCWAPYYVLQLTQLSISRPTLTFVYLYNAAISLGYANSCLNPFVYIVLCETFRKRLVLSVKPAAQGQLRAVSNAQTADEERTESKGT
T2 sequence (P97639 whole entry): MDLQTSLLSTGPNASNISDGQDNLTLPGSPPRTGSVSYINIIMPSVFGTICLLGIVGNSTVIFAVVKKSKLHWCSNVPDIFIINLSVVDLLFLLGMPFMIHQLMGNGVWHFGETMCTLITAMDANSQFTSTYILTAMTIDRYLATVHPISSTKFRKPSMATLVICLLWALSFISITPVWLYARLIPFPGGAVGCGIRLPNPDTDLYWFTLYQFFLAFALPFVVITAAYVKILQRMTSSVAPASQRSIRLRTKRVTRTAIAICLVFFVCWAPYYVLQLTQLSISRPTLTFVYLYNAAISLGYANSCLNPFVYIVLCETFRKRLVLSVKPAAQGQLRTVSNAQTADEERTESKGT

Row | Ki (hMCHR1; [5]) | IC50 (hMCHR1; [6]) | binding cooperativity (from Hill slope factor) (hMCHR1) | Hill slope factor (hMCHR1; [7]) | IC50 (hMCHR1) | Ki (hMCHR1) | Structure (SMILES) | Ex-vivo brain uptake, normalized value (MCHR1 [1]; [8]) | Ex-vivo brain uptake, normalized value (MCHR1 [1]; vehicle group) | blood-brain-barrier penetration [2] | SUVbw whole brain, baseline (MCHR1 [3]; [9]) | SUVbw ventricular system, baseline (MCHR1 [3]; [10]) | SUVbw whole brain, baseline (MCHR1 [3]; [10]) | SUVbw ventricular system, baseline (MCHR1 [3]; [11]) | SUVbw ventricular system, displacement (MCHR1 [3]; [11]) | SUVbw whole brain, displacement (MCHR1 [3]; [11]) | SUVbw ventricular system, displacement (MCHR1 [3]; [12]) | SUVbw whole brain, displacement (MCHR1 [3]; [12]) | metabolism [4]
1 | 3.91 ± 0.74 nM | 5.61 ± 1.06 nM | no binding cooperativity | 2.66 ± 0.39 | – | – | COCC1=C(C(=O)OC)[C@H](c2ccc(F)c(F)c2)N(C(=O)NCCCN2CCC(c3cccc(NC(C)=O)c3)CC2)C(=O)N1 (racemic) [(±)-SNAP-7941] | – | – | – | – | – | – | – | – | – | – | – | –
2 | – | – | strong positive cooperativity | 8.89 ± 1.59 | 7.7 ± 0.35 nM | 5.37 ± 0.25 nM | COCC1=C(C(=O)OC)[C@H](c2ccc(F)c(F)c2)N(C(=O)NCCCN2CCC(c3cccc(NC(C)=O)c3)CC2)C(=O)N1 [(+)-SNAP-7941, (+)-methyl(4 S)-3-{[(3-{4-[3-(acetylamino)phenyl]-1piperidinyl}propyl)amino]carbonyl}-4-(3,4-difluorophenyl)-6-(methoxymethyl)-2-oxo-1,2,3,4-tetra-hydro-5-pyrimidenecarboxylate hydrochloride] | – | – | – | – | – | – | – | – | – | – | – | –
3 | 9.98 ± 1.12 nM | 14.3 ± 1.61 nM | no binding cooperativity | 1.30 ± 0.33 | – | – | COCC1=C(C(=O)OCCF)[C@H](c2ccc(F)c(F)c2)N(C(=O)NCCCN2CCC(c3cccc(NC(C)=O)c3)CC2)C(=O)N1 [FE@SNAP, (+)-(2-Fluoroethyl)(4 S)-3-{[(3-{4-[3-(acetylamino)phenyl]-1-piperidinyl}propyl)amin]carbonyl}-4-(3,4-difluorophenyl)-6-(methoxymethyl)-2-oxo-1,2,3,4-tetra-hydro-5-pyrimidenecarboxylate] | – | – | – | – | – | – | – | – | – | – | – | –
4 | – | – | – | – | – | – | COCC1=C(C(=O)O[11CH3])[C@H](c2ccc(F)c(F)c2)N(C(=O)NCCCN2CCC(c3cccc(NC(C)=O)c3)CC2)C(=O)N1 [[^11C]SNAP-7941] | 0.015 ± 0.002 %ID/g | 0.023 ± 0.002 %ID/g | limited blood-brain-barrier penetration | 0.41 ± 0.03 g/mL | 0.65 ± 0.04 g/mL | 0.35 ± 0.03 g/mL | 0.64 ± 0.08 g/mL | 0.71 ± 0.04 g/mL | 0.34 ± 0.02 g/mL | 0.32 ± 0.04 g/mL | 0.31 ± 0.03 g/mL | –
5 | – | – | – | – | – | – | COCC1=C(C(=O)OCC[18F])[C@H](c2ccc(F)c(F)c2)N(C(=O)NCCCN2CCC(c3cccc(NC(C)=O)c3)CC2)C(=O)N1 [[^18F]FE@SNAP] | 0.018 ± 0.003 %ID/g | 0.020 ± 0.001 %ID/g | – | 0.41 ± 0.01 g/mL | 0.72 ± 0.01 g/mL | 0.43 ± 0.02 g/mL | 0.69 ± 0.06 g/mL | 0.73 ± 0.02 g/mL | 0.44 ± 0.02 g/mL | 0.50 ± 0.04 g/mL | 0.41 ± 0.02 g/mL | fast metabolism
